From patent publication US20260070895A1, “CRYSTALLINE FORMS” (QUIMATRYX, S.L., priority 2022, published 2026)

Legend:
[1] = Genotoxicity (clastogenicity, aneugenicity); conditions: unlike other histone deacetylase inhibitors
[2] = Pharmacokinetic properties; assay type: in vivo; conditions: compared with other histone deacetylase inhibitors
[3] = Solubility and stability of QTX125 in aqueous solution (background); assay type: physicochemical
[4] = molecular target: T1, HDAC 6 (Homo sapiens, UniProt Q9UBN7); conditions: cited from earlier work
T1 sequence (Q9UBN7 1-1215): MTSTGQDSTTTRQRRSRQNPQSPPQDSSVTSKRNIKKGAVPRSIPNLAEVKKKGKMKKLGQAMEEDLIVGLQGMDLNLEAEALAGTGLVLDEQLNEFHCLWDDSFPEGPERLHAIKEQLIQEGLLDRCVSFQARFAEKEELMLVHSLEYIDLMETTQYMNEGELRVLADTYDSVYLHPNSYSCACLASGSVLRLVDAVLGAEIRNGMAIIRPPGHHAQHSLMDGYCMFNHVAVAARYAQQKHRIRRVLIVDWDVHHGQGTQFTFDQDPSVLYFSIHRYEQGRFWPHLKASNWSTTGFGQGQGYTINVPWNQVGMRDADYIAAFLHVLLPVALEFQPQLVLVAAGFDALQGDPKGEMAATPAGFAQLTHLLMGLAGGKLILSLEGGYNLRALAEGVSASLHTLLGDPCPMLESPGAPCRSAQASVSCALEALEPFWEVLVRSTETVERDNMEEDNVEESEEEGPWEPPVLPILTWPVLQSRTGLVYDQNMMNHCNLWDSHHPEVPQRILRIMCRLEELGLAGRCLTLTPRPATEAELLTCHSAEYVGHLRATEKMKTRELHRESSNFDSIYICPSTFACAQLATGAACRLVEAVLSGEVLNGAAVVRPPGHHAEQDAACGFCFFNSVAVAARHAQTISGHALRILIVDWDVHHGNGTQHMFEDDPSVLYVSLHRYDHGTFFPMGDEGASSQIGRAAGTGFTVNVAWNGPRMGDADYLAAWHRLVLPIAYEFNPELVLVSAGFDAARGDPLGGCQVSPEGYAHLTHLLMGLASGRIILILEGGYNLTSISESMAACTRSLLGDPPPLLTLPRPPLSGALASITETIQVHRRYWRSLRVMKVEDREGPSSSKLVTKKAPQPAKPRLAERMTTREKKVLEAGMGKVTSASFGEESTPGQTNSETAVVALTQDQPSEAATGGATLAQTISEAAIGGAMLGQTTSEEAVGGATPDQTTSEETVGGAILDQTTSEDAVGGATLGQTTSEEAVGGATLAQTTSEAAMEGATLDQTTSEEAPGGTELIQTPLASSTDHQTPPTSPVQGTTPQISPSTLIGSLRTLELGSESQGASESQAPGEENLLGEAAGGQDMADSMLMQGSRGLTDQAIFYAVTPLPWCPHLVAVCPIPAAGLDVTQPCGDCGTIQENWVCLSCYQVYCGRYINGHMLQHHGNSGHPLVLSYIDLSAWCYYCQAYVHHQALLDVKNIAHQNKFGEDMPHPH

[5] = tested on: mantle cell lymphoma, lung cancer and pancreatic cancer xenograft; conditions: lung cancer and pancreatic cancer xenograft murine models; cited from earlier work
[6] = tested on: multiple sclerosis mice models; conditions: two different multiple sclerosis mice models; cited from earlier work
[7] = hydroxamic acids such as QTX125; cited from earlier work
[8] = Photostability at solid state (chemical purity by HPLC after illumination); assay type: physicochemical; conditions: solid-state; for degradation (in words): up to 171 hours
Description: (§1) The method for determining purity by HPLC—used throughout these examples—used the following parameters:
(§2) The photostability of novel crystalline forms of QTX125 was assessed at solid state and in solution. Where ‘forced illumination’ conditions were used, samples were illuminated at 12 Klux/hour and 2.8 UV W/m^2/hour. Samples were stored at a temperature of 30° C. Following incubation, the chemical purity of QTX125 was measured by HPLC.
(§3) The following index is provided to aid navigation of the data presented in Tables 3.1.1 to 3.3.6: • 3.1.x—Assessment of the photostability of QTX125 Form 2. • 3.2.x—Assessment of the photostability of amorphous QTX125. • 3.3.x—Assessment of the photostability of the QTX125 1:2 L-Lysine adduct. • 3.x.1—Samples (at solid state) stored in unsealed clear glass bottles, subject to forced illumination. • 3.x.2—Samples (at solid state) sealed under nitrogen in clear glass bottles, subject to forced illumination. • 3.x.3—Samples (at solid state) sealed under nitrogen in amber glass bottles, illuminated under ambient laboratory conditions • 3.x.4—Samples (at solid state) sealed under nitrogen in amber glass bottles, subject to forced illumination. • 3.x.5—Samples (in solution) sealed under nitrogen in amber glass bottles, illuminated under ambient laboratory conditions. • 3.x.6—Samples (in solution) sealed under nitrogen in amber glass bottles, subject to forced illumination.

[9] = Photostability in solution (THF and water), HPLC; assay type: physicochemical; conditions: in solution (THF and water), sealed under nitrogen in amber glass bottles; for degradation (in words): up to 171 hours
Description: as §1, §2, §3

[10] = sealed under nitrogen in amber glass bottles, ambient laboratory conditions, 0 hours
[11] = sealed under nitrogen in amber glass bottles, ambient laboratory conditions, 3 hours
[12] = sealed under nitrogen in amber glass bottles, ambient laboratory conditions, 50 hours
[13] = sealed under nitrogen in amber glass bottles, ambient laboratory conditions, 171 hours
[14] = sealed under nitrogen in amber glass bottles, ambient laboratory conditions, 171 hours, listed as Amorphous
[15] = sealed under nitrogen in amber glass bottles, forced illumination, 0 hours
[16] = sealed under nitrogen in amber glass bottles, forced illumination, 3 hours
[17] = sealed under nitrogen in amber glass bottles, forced illumination, 50 hours
[18] = sealed under nitrogen in amber glass bottles, forced illumination, 171 hours
[19] = sealed under nitrogen in amber glass bottles, forced illumination, 171 hours, listed as Amorphous
[20] = sealed under nitrogen in clear glass bottles, forced illumination
[21] = sealed under nitrogen in clear glass bottles, forced illumination, 0 hours
[22] = sealed under nitrogen in clear glass bottles, forced illumination, 3 hours
[23] = sealed under nitrogen in clear glass bottles, forced illumination, 50 hours
[24] = sealed under nitrogen in clear glass bottles, forced illumination, 171 hours
[25] = unsealed clear glass bottles, forced illumination
[26] = unsealed clear glass bottles, forced illumination, 0 hours
[27] = unsealed clear glass bottles, forced illumination, 3 hours
[28] = unsealed clear glass bottles, forced illumination, 50 hours
[29] = unsealed clear glass bottles, forced illumination, 171 hours
[30] = ambient laboratory conditions, 0 hours
[31] = ambient laboratory conditions, 3 hours
[32] = ambient laboratory conditions, 50 hours
[33] = ambient laboratory conditions, 171 hours
[34] = ambient laboratory conditions, 171 hours, listed as Amorphous
[35] = forced illumination, 171 hours, listed as Amorphous

O=C(NO)c1ccc(CNC(=O)c2[nH]c(-c3ccc(O)cc3)cc2-c2ccoc2)cc1 [QTX125, 3-(3-furyl)-N-{4-[(hydroxyamino)carbonyl]benzyl}-5-(4-hydroxyphenyl)-1H-pyrrole-2-carboxamide]
genotoxicity, in particular clastogenicity or aneugenicity [1]: no evidence of genotoxicity | pharmacokinetic properties: half-lives and distribution volumes [2]: higher half-lives and distribution volumes | physical and chemical stability in solution [3]: physical and chemical instability | HDAC 6 inhibition (in words) [4]: highly selective and highly potent | antitumoral efficacy [5]: high antitumoral efficacy | efficacy in multiple sclerosis models [6]: high efficacy | solubility in water [7]: very low solubility

O=C(NO)c1ccc(CNC(=O)c2[nH]c(-c3ccc(O)cc3)cc2-c2ccoc2)cc1 [amorphous QTX125, 3-(3-Furyl)-N-{4-[(hydroxyamino)carbonyl]benzyl}-5-(4-hydroxyphenyl)-1H-pyrrole-2-carboxamide]
HPLC peak area, QTX125 RRT 1.00 [8, 10]: 96.74% | HPLC peak area, RRT 1.04 [8, 10]: 1.32% | HPLC peak area, RRT 1.12 [8, 10]: 0.35% | HPLC peak area, QTX125 RRT 1.00 [8, 11]: 96.75% | HPLC peak area, RRT 1.04 [8, 11]: 1.26% | HPLC peak area, RRT 1.12 [8, 11]: 0.36% | HPLC peak area, QTX125 RRT 1.00 [8, 12]: 96.61% | HPLC peak area, RRT 1.04 [8, 12]: 0.71% | HPLC peak area, RRT 1.12 [8, 12]: 0.39% | HPLC peak area, QTX125 RRT 1.00 [8, 13]: 96.16% | HPLC peak area, RRT 1.04 [8, 13]: 1.46% | HPLC peak area, RRT 1.12 [8, 13]: 0.39% | HPLC peak area, QTX125 RRT 1.00 [8, 14]: 96.16% | HPLC peak area, RRT 1.04 [8, 14]: 1.46% | degradation (in words) ([8]; sealed under nitrogen in amber glass bottles, ambient laboratory conditions): evidence of slight degradation | HPLC peak area, QTX125 RRT 1.00 [8, 15]: 96.74% | HPLC peak area, RRT 1.04 [8, 15]: 1.32% | HPLC peak area, RRT 1.12 [8, 15]: 0.35% | HPLC peak area, QTX125 RRT 1.00 [8, 16]: 96.94% | HPLC peak area, RRT 1.04 [8, 16]: 1.04% | HPLC peak area, RRT 1.12 [8, 16]: 0.35% | HPLC peak area, QTX125 RRT 1.00 [8, 17]: 96.12% | HPLC peak area, RRT 1.04 [8, 17]: 1.09% | HPLC peak area, RRT 1.12 [8, 17]: 0.38% | HPLC peak area, QTX125 RRT 1.00 [8, 18]: 94.43% | HPLC peak area, RRT 1.04 [8, 18]: 1.70% | HPLC peak area, RRT 1.12 [8, 18]: 0.47% | HPLC peak area, QTX125 RRT 1.00 [8, 19]: 94.43% | HPLC peak area, RRT 1.04 [8, 19]: 1.70% | HPLC peak area, RRT 1.12 [8, 19]: 0.47% | degradation (in words) ([8]; sealed under nitrogen in amber glass bottles, forced illumination): degrades slightly | colour change of the solid material [8, 20]: change in colour from off white/beige to brown | HPLC peak area, QTX125 RRT 1.00 [8, 21]: 96.74% | HPLC peak area, RRT 1.04 [8, 21]: 1.32% | HPLC peak area, RRT 1.12 [8, 21]: 0.35% | HPLC peak area, QTX125 RRT 1.00 [8, 22]: 95.97% | HPLC peak area, RRT 1.04 [8, 22]: 1.51% | HPLC peak area, RRT 1.12 [8, 22]: 0.38% | HPLC peak area, QTX125 RRT 1.00 [8, 23]: 89.64% | HPLC peak area, RRT 1.04 [8, 23]: 4.38% | HPLC peak area, RRT 1.12 [8, 23]: 0.60% | HPLC peak area, QTX125 RRT 1.00 [8, 24]: 84.46% | HPLC peak area, RRT 1.04 [8, 24]: 6.61% | HPLC peak area, RRT 1.12 [8, 24]: 0.90% | degradation (in words) [8, 20]: degrades under forced illumination to two principal components | colour change of the solid material [8, 25]: change in colour from off white/beige to brown | HPLC peak area, QTX125 RRT 1.00 [8, 26]: 96.74% | HPLC peak area, RRT 1.04 [8, 26]: 1.32% | HPLC peak area, RRT 1.12 [8, 26]: 0.35% | HPLC peak area, QTX125 RRT 1.00 [8, 27]: 95.81% | HPLC peak area, RRT 1.04 [8, 27]: 1.61% | HPLC peak area, RRT 1.12 [8, 27]: 0.39% | HPLC peak area, QTX125 RRT 1.00 [8, 28]: 88.70% | HPLC peak area, RRT 1.04 [8, 28]: 4.64% | HPLC peak area, RRT 1.12 [8, 28]: 0.63% | HPLC peak area, QTX125 RRT 1.00 [8, 29]: 83.01% | HPLC peak area, RRT 1.04 [8, 29]: 7.15% | HPLC peak area, RRT 1.12 [8, 29]: 0.90% | degradation (in words) [8, 25]: degrades under forced illumination to two principal components | HPLC peak area, QTX125 RRT 1.00 [9, 30]: 96.74% | HPLC peak area, RRT 1.04 [9, 30]: 1.32% | HPLC peak area, RRT 1.12 [9, 30]: 0.35% | HPLC peak area, QTX125 RRT 1.00 [9, 31]: 92.10% | HPLC peak area, RRT 1.04 [9, 31]: 0.94% | HPLC peak area, RRT 1.12 [9, 31]: 0.48% | HPLC peak area, QTX125 RRT 1.00 [9, 32]: 95.89% | HPLC peak area, RRT 1.04 [9, 32]: 1.03% | HPLC peak area, RRT 1.12 [9, 32]: 0.54% | HPLC peak area, QTX125 RRT 1.00 [9, 33]: 91.98% | HPLC peak area, RRT 1.04 [9, 33]: 2.30% | HPLC peak area, RRT 1.12 [9, 33]: 1.14% | HPLC peak area, QTX125 RRT 1.00 [9, 34]: 91.98% | HPLC peak area, RRT 1.04 [9, 34]: 2.30% | HPLC peak area, RRT 1.12 [9, 34]: 1.14% | degradation (in words) ([9]; ambient laboratory conditions): degrades | HPLC peak area, QTX125 RRT 1.00 ([9]; forced illumination, 0 hours): 96.74% | HPLC peak area, RRT 1.04 ([9]; forced illumination, 0 hours): 1.32% | HPLC peak area, RRT 1.12 ([9]; forced illumination, 0 hours): 0.35% | HPLC peak area, QTX125 RRT 1.00 ([9]; forced illumination, 3 hours): 96.31% | HPLC peak area, RRT 1.04 ([9]; forced illumination, 3 hours): 0.92% | HPLC peak area, RRT 1.12 ([9]; forced illumination, 3 hours): 0.46% | HPLC peak area, QTX125 RRT 1.00 ([9]; forced illumination, 50 hours): 94.55% | HPLC peak area, RRT 1.04 ([9]; forced illumination, 50 hours): 1.27% | HPLC peak area, RRT 1.12 ([9]; forced illumination, 50 hours): 0.55% | HPLC peak area, QTX125 RRT 1.00 ([9]; forced illumination, 171 hours): 87.29% | HPLC peak area, RRT 1.04 ([9]; forced illumination, 171 hours): 2.33% | HPLC peak area, RRT 1.12 ([9]; forced illumination, 171 hours): 1.03% | HPLC peak area, QTX125 RRT 1.00 [9, 35]: 87.29% | HPLC peak area, RRT 1.04 [9, 35]: 2.33% | HPLC peak area, RRT 1.12 [9, 35]: 1.03% | degradation (in words) ([9]; forced illumination): degrades
